Molecules are shown by their SMILES. Entries after “also recorded” stand apart in the source; their conditions may differ. Where a name gives a salt, the structure may show the parent alone. Square brackets hold non-standard residues; d marks the D form. Peptide text beside a SMILES is read from it. * marks the point of attachment. Sta = CC(C)C[C@H](N)[C@@H](O)CC(=O)O; Isovaleryl = CC(C)CC(=O)*

One data set concerns the target porcine pepsin A (Sus scrofa, UniProt P00791). Format: binding. Conditions: 100nM pepstatin-Alexa647 probe, 0.03U/ul porcine pepsin A, 37.5% DMSO, 0.1 M HCl pH 1.
A further data set deals with porcine pepsin (Sus scrofa, UniProt P00791). The data set can be described thus: Fluorescence polarization peptic activity assay with casein-Alexa647 substrate. Format: biochemical. Conditions: for inhibition of pepsin (IC50): 200nM casein-Alexa647 probe, 0.01U/μL pepsin, 5% DMSO, 0.1 M HCl pH 1.
porcine pepsin, sequence (P00791 60-385): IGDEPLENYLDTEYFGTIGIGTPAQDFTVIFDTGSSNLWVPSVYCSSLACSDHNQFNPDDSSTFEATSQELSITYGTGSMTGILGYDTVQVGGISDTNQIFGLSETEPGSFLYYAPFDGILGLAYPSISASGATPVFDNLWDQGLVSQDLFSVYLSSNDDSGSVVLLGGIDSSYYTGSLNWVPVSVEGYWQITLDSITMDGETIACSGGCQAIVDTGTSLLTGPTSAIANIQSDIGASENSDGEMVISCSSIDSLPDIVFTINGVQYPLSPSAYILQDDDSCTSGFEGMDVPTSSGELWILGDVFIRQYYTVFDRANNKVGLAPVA
For data set [1] the following is noted: cited from earlier work.
In data set [2] the test system is pepsin-mediated laryngeal damage. Kind of data set: Laryngopharyngeal reflux mouse model. Format: in vivo, female Jackson A/J mice.
A further data set relates to pepsin. The conditions noted are these: cited from earlier work.
Where [3] appears, read: aerosol with saline (solvent) instillation.
Where [4] appears, read: gavage with saline (solvent) instillation.

porcine pepsin A, sequence (P00791 60-385): as above

Consider `CC(C)CN(C[C@@H](O)[C@H](Cc1ccccc1)NC(=O)O[C@H]1CCOC1)S(=O)(=O)c1ccc(N)cc1` [amprenavir], for which, on porcine pepsin A, the binding to pepsin result was “bound”. For the same compound, the “inhibition of pepsin (IC50)” value on porcine pepsin is given as “inhibited pepsin at low micromolar concentrations; also recorded: low micromolar range”. The “known side effects and interactions” value in data set [1] is “minimal side effects (diarrhea, nausea and vomiting)”.

With `CC(C)CN(C[C@@H](O)[C@H](Cc1ccccc1)NC(=O)O[C@H]1CO[C@H]2OCC[C@H]21)S(=O)(=O)c1ccc(N)cc1` [darunavir, darunavir ethanolate], the binding to pepsin entry at porcine pepsin A is on record as “bound”. Further, on porcine pepsin, the “inhibition of pepsin (IC50)” value is reported as “inhibited pepsin at low micromolar concentrations; also recorded: low micromolar range”. For the same compound, the “IC50 for pepsin compared with the other inhibitors” value against porcine pepsin (comparison among the HIV protease inhibitors tested) was “lowest IC50”. Besides, the entries for the “laryngeal epithelial histology/reactivity elicited by the drug itself” value in data set [2] (setting [3]) and in data set [2] (setting [4]) were “absent” and “mild reactivity (rare intraepithelial lymphocytes)”, respectively. Besides, the “apoptosis in laryngeal epithelium” value in data set [2] (aerosol, inhaled mass 12mg/kg/day darunavir, pepsin-pH7 instillation) was “no apoptosis was observed”.

Consider `CC(C)CN(C[C@@H](OP(=O)(O)O)[C@H](Cc1ccccc1)NC(=O)O[C@H]1CCOC1)S(=O)(=O)c1ccc(N)cc1` [fosamprenavir], for which the “laryngeal epithelial histology/reactivity elicited by the drug itself” value in data set [2] (setting [3]) and in data set [2] (setting [4]) was “normal histology” throughout.

As for `CC(C)CC(=O)N[C@H](C(=O)N[C@H](C(=O)N[C@@H](CC(C)C)[C@@H](O)CC(=O)N[C@@H](C)C(=O)N[C@@H](CC(C)C)[C@@H](O)CC(=O)O)C(C)C)C(C)C` [pepstatin, pepstatin A] (Isovaleryl-VV[Sta]A[Sta]-OH), in the data set on pepsin, the affinity for pepsin result is given as “sub-nanomolar”.

As for `CC(C)c1nc(CN(C)C(=O)N[C@H](C(=O)N[C@@H](Cc2ccccc2)C[C@H](O)[C@H](Cc2ccccc2)NC(=O)OCc2cncs2)C(C)C)cs1` [ritonavir], the binding to pepsin entry on porcine pepsin A is recorded as “bound”. Moreover, the “known side effects and interactions” value in data set [1] is “minimal side effects (diarrhea, nausea and vomiting)”.

Consider `CC(C)(C)NC(=O)[C@@H]1C[C@@H]2CCCC[C@@H]2CN1C[C@@H](O)[C@H](Cc1ccccc1)NC(=O)[C@H](CC(N)=O)NC(=O)c1ccc2ccccc2n1` [saquinavir, saquinavir mesylate], for which the binding to pepsin result at porcine pepsin A is recorded as “bound”. Besides, the “inhibition of pepsin (IC50)” value on porcine pepsin was “inhibited pepsin at low micromolar concentrations; also recorded: low micromolar range”. Moreover, the “known side effects and interactions” value in data set [1] is “QT prolongation, heart block, high blood lipids and liver problems”.

(Values after PMC9732152 (The Laryngoscope, 2022).)
